Data reported in the supplement of paper PMC10307832.

Experiments:
Test in all cases: relative viability (nuclei count vs DMSO), 5 days (fraction); higher = more cells survive
[1] = compound: C1CC(C2=C(C1)C3=C(N2)C=CC(=C3)Cl)C(=O)N [Selisistat] + C[C@@H](Oc1cc(-c2cnn(C3CCNCC3)c2)cnc1N)c1c(Cl)ccc(F)c1Cl [Crizotinib] (partner 1 µM)
How it was run: (§1)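 Cells from lung cancer lines were seeded into 1536-well plates and, one day later, dosed by pin tool. Treatments were either a single drug or a fixed dose of an anchor drug with five library-drug doses (not always all listed) in √10 steps. After 5 days, nuclei were stained in a one-step fixation (final 0.05% Triton X-100, 1% formaldehyde, 1 ug/ml Hoechst) and counted on 4× images, and relative viability is the treated-to-vehicle nuclei ratio, as the median of duplicate plates.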

[2] = compound: c1ccc2c(CCNc3ccc(Nc4ccncc4)cc3)c[nH]c2c1 [Serdemetan] + CS(=O)(=O)N1CCN(Cc2cc3nc(-c4cccc5[nH]ncc45)nc(N4CCOCC4)c3s2)CC1 [Pictilisib] (partner 1 µM)
How it was run: as §1

[3] = compound: C1CC(C2=C(C1)C3=C(N2)C=CC(=C3)Cl)C(=O)N [Selisistat] + C[C@]1(O)C[C@@H](c2nc(-c3ccc4ccc(-c5ccccc5)nc4c3)c3c(N)nccn32)C1 [Linsitinib] (partner 1 µM)
How it was run: as §1

[4] = compound: C1CC(C2=C(C1)C3=C(N2)C=CC(=C3)Cl)C(=O)N [Selisistat] + COc1cc2c(Oc3ccc(NC(=O)C4(C(=O)Nc5ccc(F)cc5)CC4)cc3F)ccnc2cc1OCCCN1CCOCC1 [Foretinib] (partner 0.25 µM)
How it was run: as §1

| Cell Line | relative viability ([1]; first compound 0.4 µM) | relative viability ([1]; first compound 1.265 µM) | relative viability ([1]; first compound 4 µM) | relative viability ([1]; first compound 12.65 µM) | relative viability ([1]; first compound 40 µM) | relative viability ([2]; first compound 0.04 µM) | relative viability ([2]; first compound 0.1265 µM) | relative viability ([2]; first compound 0.4 µM) | relative viability ([2]; first compound 1.265 µM) | relative viability ([2]; first compound 4 µM) | relative viability ([3]; first compound 0.4 µM) | relative viability ([3]; first compound 1.265 µM) | relative viability ([3]; first compound 4 µM) | relative viability ([3]; first compound 12.65 µM) | relative viability ([3]; first compound 40 µM) | relative viability ([4]; first compound 0.4 µM) | relative viability ([4]; first compound 1.265 µM) | relative viability ([4]; first compound 12.65 µM) | relative viability ([4]; first compound 40 µM) | relative viability ([4]; first compound 4 µM) |
| --- | --- | --- | --- | --- | --- | --- | --- | --- | --- | --- | --- | --- | --- | --- | --- | --- | --- | --- | --- | --- |
| NCI-H2087 | 0.847 | 0.77 | 1.13 | 0.763 | 0.784 | 0.961 | 0.966 | 0.814 | 0.493 | 0.422 | 0.953 | 0.957 | 0.885 | 0.737 | 0.818 | 1.09 | 1.12 | 1.01 | 1.05 |  |
| NCI-H1437 | 0.855 | 0.885 | 0.977 | 0.865 | 0.792 | 0.469 | 0.409 | 0.454 | 0.492 | 0.342 | 1.11 | 0.981 | 1.09 | 0.986 | 0.89 | 1.29 | 1.21 | 1.06 | 1 | 1.33 |
| NCI-H650 | 0.707 |  | 0.786 | 0.596 | 0.664 | 0.743 | 0.778 | 0.977 | 0.793 | 0.746 | 0.824 |  | 0.987 | 0.72 | 1.01 | 1.02 | 1.03 | 0.98 | 0.992 | 1.24 |
| COR-L23 | 0.621 | 0.664 | 0.635 | 0.537 | 0.581 | 0.665 | 0.767 | 0.785 | 0.598 | 0.752 | 1.04 | 0.872 | 1.04 | 0.899 | 0.876 | 1.08 | 0.981 | 1.03 | 0.996 | 1.04 |
| COR-L 105 | 0.716 | 0.786 | 0.748 | 0.745 | 0.741 | 0.366 | 0.486 | 0.322 | 0.427 | 0.37 | 0.755 | 0.918 | 0.933 | 1.02 | 0.914 | 0.984 | 1.15 | 1.1 | 1.14 |  |
| LK-2 | 0.234 | 0.255 | 0.245 | 0.231 | 0.24 | 0.479 | 0.578 | 0.687 | 0.362 | 0.301 | 0.265 | 0.437 | 0.341 | 0.519 | 0.619 | 0.955 | 1.04 | 0.955 | 1.01 | 1.45 |
| 201T | 1.04 | 1.03 | 0.986 | 1.02 | 1.01 | 0.707 | 0.712 | 0.67 | 0.655 | 0.664 | 1.08 | 1.02 | 0.998 | 0.967 | 1.06 | 1.06 | 1.03 | 0.986 | 1.11 | 0.997 |
| NCI-H596 | 1.11 | 0.898 | 0.853 | 0.991 | 0.905 | 0.41 | 0.411 | 0.346 | 0.332 | 0.339 | 1 | 1.11 | 1.03 | 1.23 | 0.999 | 1.09 | 0.693 | 0.89 | 0.585 | 0.846 |
| H3255 | 0.899 | 0.769 | 0.926 | 0.899 | 0.734 | 0.5 | 0.403 | 0.423 | 0.497 | 0.435 | 0.946 | 0.843 | 0.973 | 0.827 | 0.938 | 0.863 | 0.9 | 0.84 | 0.767 | 0.837 |
| NCI-H647 | 1.16 | 1 |  | 1.01 | 0.948 | 0.359 | 0.313 | 0.499 | 0.392 | 0.445 | 1.15 | 1.12 |  | 1.07 | 1.26 | 1.18 | 1.13 | 1.16 | 1.25 | 1.19 |
| NCI-H2023 | 0.69 | 0.651 | 0.636 | 0.68 | 0.576 | 0.219 | 0.28 | 0.19 | 0.182 | 0.189 | 0.686 | 0.581 | 0.662 | 0.735 | 0.569 | 0.879 | 0.81 | 0.873 | 0.904 | 0.966 |
| NCI-H23 | 0.515 | 0.474 |  | 0.468 | 0.473 | 0.536 | 0.571 | 0.459 | 0.439 | 0.543 | 0.631 | 0.466 |  | 0.579 | 0.6 | 0.579 | 0.779 | 0.935 | 0.565 | 0.805 |
| NCI-H1944 | 1.13 | 1.01 |  | 1.09 | 1.04 | 0.354 | 0.383 | 0.34 |  | 0.338 | 1.15 | 1.17 |  | 1.21 | 1.18 | 0.948 | 0.854 | 0.857 | 0.808 |  |
| NCI-H520 | 0.743 | 0.714 | 0.873 | 0.742 | 0.796 | 0.283 | 0.327 | 0.321 | 0.269 | 0.272 | 0.823 | 0.954 | 0.982 | 0.967 | 0.969 | 0.691 | 0.699 | 0.801 | 0.746 | 0.715 |
| A549 | 0.716 | 0.742 | 0.698 | 0.709 | 0.728 | 0.537 | 0.558 | 0.517 | 0.264 | 0.262 | 0.664 | 0.587 | 0.484 | 0.649 | 0.622 | 1.04 | 0.826 | 0.917 | 0.985 | 0.945 |
